Experiment: Metabolic stability in human liver microsomes
Assay type: in vitro ADME
Conditions: 0.25 μM test compound; for half-life at 0.25 μM: 2 mM NADPH, 37° C.; for CLint scaled at 0.25 μM: human liver microsomes
Method: Microsomal Assay: Human liver microsomes (20 mg/mL) were obtained from Xenotech, LLC (Lenexa, Kans.). β-nicotinamide adenine dinucleotide phosphate, reduced form (NADPH), magnesium chloride (MgCl2), and dimethyl sulfoxide (DMSO) were purchased from Sigma-Aldrich.
Determination of Metabolic Stability: 7.5 mM stock solutions of test compounds of structural formula (I) (e.g., of an embodiment or aspect of embodiment thereof described herein) or structural formula (II), or pharmaceutically acceptable salt thereof, were prepared in DMSO. The 7.5 mM stock solutions were diluted to 12.5-50 μM in acetonitrile (ACN). The 20 mg/mL human liver microsomes were diluted to 0.625 mg/mL in 0.1 M potassium phosphate buffer, pH 7.4, containing 3 mM MgCl2. The diluted microsomes were added to wells of a 96-well deep-well polypropylene plate in triplicate. A 10 μL aliquot of the 12.5-50 μM test compound was added to the microsomes and the mixture was pre-warmed for 10 minutes. Reactions were initiated by addition of pre-warmed NADPH solution. The final reaction volume was 0.5 mL and contained […] human liver microsomes, 0.25 μM test compound, and 2 mM NADPH in 0.1 M potassium phosphate buffer, pH 7.4, and 3 mM MgCl2. The reaction mixtures were incubated at 37° C., and 50 μL aliquots were removed at 0, 5, 10, 20, and 30 minutes and added to shallow-well 96-well plates which contain 50 μL of ice-cold ACN (acetonitrile) with internal standard to stop the reactions. The plates were stored at 4° C. for 20 minutes after which 100 μL of water was added to the wells of the plate before centrifugation to pellet precipitated proteins. Supernatants were transferred to another 96-well plate and analyzed for amounts of parent remaining by LC-MS/MS using an Applied Bio-systems API 4000 mass spectrometer. The same procedure was followed for the non-deuterated counterpart of the compound of Formula I and the positive control, 7-ethoxycoumarin (1 μM). Testing was done in triplicate.
Data analysis: The in vitro t1/2s for test compounds were calculated from the slopes of the linear regression of % parent remaining (ln) vs incubation time relationship.
k=−[slope of linear regression of % parent remaining (ln) vs incubation time]
The apparent intrinsic clearance was calculated using the following equation:
CLint(mL/min/kg)=(0.693/in vitro t1/2)(Incubation Volume/mg of microsomes)(45 mg microsomes/gram of liver)(20 gm of liver/kg b.w.)
Data analysis was performed using Microsoft Excel Software.

[1] = pH 7.4, EXP# 2506, 4.0 mg/mL human liver microsomes
[2] = pH 7.4, EXP# 2506, apparent intrinsic clearance
[3] = pH 7.4, EXP# 2503, 4.0 mg/mL human liver microsomes
[4] = pH 7.4, EXP#2503, apparent intrinsic clearance

SMILES | half-life at 0.25 μM [1] | CLint scaled at 0.25 μM [2] | half-life at 0.25 μM [3] | CLint scaled at 0.25 μM [4]
[2H]C([2H])([2H])Oc1cccc([C@H](O)C2CCN(CCc3ccc(F)cc3)CC2)c1OC [Compound 115, (R)-(1-(4-fluorophenethyl)piperidin-4-yl)(2-methoxy-3-(methoxy-d3)phenyl)methanol] | 1.16 h | 2.3 mL/min/kg | – | –
[2H]C([2H])([2H])Oc1c(OC)cccc1[C@H](O)C1CCN(CCc2ccc(F)cc2)CC1 [Compound 131, (R)-(1-(4-fluorophenethyl)piperidin-4-yl)(3-methoxy-2-(methoxy-d3)phenyl)methanol] | 1.19 h | 2.4 mL/min/kg | – | –
[2H]C([2H])([2H])Oc1cccc([C@H](O)C2CCN(CCc3ccc(F)cc3)CC2)c1OC([2H])([2H])[2H] [Compound 147, (R)-(2,3-bis(methoxy-d3)phenyl)(1-(4-fluorophenethyl)piperidin-4-yl)methanol] | 1.12 h | 2.3 mL/min/kg | – | –
[2H]C([2H])([2H])Oc1cccc([C@]([2H])(O)C2CCN(CCc3ccc(F)cc3)CC2)c1OC([2H])([2H])[2H] [Compound 148, (R)-(2,3-bis(methoxy-d3)phenyl)(1-(4-fluorophenethyl)piperidin-4-yl)methan-d-ol] | 1.19 h | 2.2 mL/min/kg | – | –
[2H]C([2H])([2H])Oc1cccc([C@H](O)C2CCN(C([2H])([2H])Cc3ccc(F)cc3)CC2)c1OC([2H])([2H])[2H] [Compound 151, (R)-(2,3-bis(methoxy-d3)phenyl)(1-(2-(4-fluorophenyl)ethyl-1,1-d2)piperidin-4-yl)methanol] | 1.17 h | 2.3 mL/min/kg | – | –
[2H]C([2H])([2H])Oc1cccc([C@H](O)C2CCN(C([2H])([2H])C([2H])([2H])c3ccc(F)cc3)CC2)c1OC([2H])([2H])[2H] [Compound 159, (R)-(2,3-bis(methoxy-d3)phenyl)(1-(2-(4-fluorophenyl)ethyl-1,1,2,2-d4)piperidin-4-yl)methanol] | 1.42 h | 1.9 mL/min/kg | – | –
[2H]C1([2H])N(CCc2ccc(F)cc2)C([2H])([2H])C([2H])([2H])C([2H])([C@@H](O)c2cccc(OC)c2OC)C1([2H])[2H] [Compound 203, (R)-(2,3-dimethoxyphenyl)(1-(4-fluorophenethyl)piperidin-4-yl-2,2,3,3,4,5,5,6,6-d9)methanol] | – | – | 0.794 h | 3.4 mL/min/kg
[2H]C([2H])(Cc1ccc(F)cc1)N1C([2H])([2H])C([2H])([2H])C([2H])([C@@H](O)c2cccc(OC)c2OC)C([2H])([2H])C1([2H])[2H] [Compound 215, (R)-(2,3-dimethoxyphenyl)(1-(2-(4-fluorophenyl)ethyl-1,1-d2)piperidin-4-yl-2,2,3,3,4,5,5,6,6-d9)methanol] | – | – | 0.777 h | 3.4 mL/min/kg
[2H]C([2H])([2H])Oc1cccc([C@H](O)C2([2H])C([2H])([2H])C([2H])([2H])N(CCc3ccc(F)cc3)C([2H])([2H])C2([2H])[2H])c1OC([2H])([2H])[2H] [Compound 347, (R)-(2,3-bis(methoxy-d3)phenyl)(1-(4-fluorophenethyl)piperidin-4-yl-2,2,3,3,4,5,5,6,6-d9)methanol] | – | – | 0.815 h | 3.2 mL/min/kg
[2H]C([2H])([2H])Oc1cccc([C@H](O)C2([2H])C([2H])([2H])C([2H])([2H])N(C([2H])([2H])Cc3ccc(F)cc3)C([2H])([2H])C2([2H])[2H])c1OC([2H])([2H])[2H] [Compound 359, (R)-(2,3-bis(methoxy-d3)phenyl)(1-(2-(4-fluorophenyl)ethyl-1,1-d2)piperidin-4-yl-2,2,3,3,4,5,5,6,6-d9)methanol] | – | – | 1.1 h | 2.4 mL/min/kg
[2H]C([2H])([2H])Oc1cccc([C@H](O)C2([2H])C([2H])([2H])C([2H])([2H])N(C([2H])([2H])C([2H])([2H])c3ccc(F)cc3)C([2H])([2H])C2([2H])[2H])c1OC([2H])([2H])[2H] [Compound 383, (R)-(2,3-bis(methoxy-d3)phenyl)(1-(2-(4-fluorophenyl)ethyl-1,1,2,2-d4)piperidin-4-yl-2,2,3,3,4,5,5,6,6-d9)methanol] | – | – | 1.23 h | 2.3 mL/min/kg
COc1cccc([C@H](O)C2CCN(CCc3ccc(F)cc3)CC2)c1OC [volinanserin, (R)-(+)-α-(2,3-dimethoxyphenyl)-1-[2-(4-fluorophenyl)ethyl]-4-piperidinemethanol, reference compound] | 0.808 h | 3.2 mL/min/kg | 0.745 h | 3.5 mL/min/kg
